Assay results taken from patent publication US7264935B2, “Potassium-dependent sodium-calcium exchanger” (Astellas Pharma Inc., priority 2002, dated 2007).

How the values were obtained:
Format in all cases: cell-based
[1] = target: T1, novel potassium-dependent sodium-calcium exchanger consisting of the amino acid sequence of SEQ ID NO: 2 (Homo sapiens, UniProt Q8NFF2); test: 45Ca uptake screening for inhibition of potassium-dependent sodium-calcium exchange activity in stable-expression Dede cells (SEQ ID NO: 2); conditions: exchanger of SEQ ID NO: 2; conditions of Example 6
T1 construct: expressed in transfected cells
T1 sequence (Q8NFF2 39-622): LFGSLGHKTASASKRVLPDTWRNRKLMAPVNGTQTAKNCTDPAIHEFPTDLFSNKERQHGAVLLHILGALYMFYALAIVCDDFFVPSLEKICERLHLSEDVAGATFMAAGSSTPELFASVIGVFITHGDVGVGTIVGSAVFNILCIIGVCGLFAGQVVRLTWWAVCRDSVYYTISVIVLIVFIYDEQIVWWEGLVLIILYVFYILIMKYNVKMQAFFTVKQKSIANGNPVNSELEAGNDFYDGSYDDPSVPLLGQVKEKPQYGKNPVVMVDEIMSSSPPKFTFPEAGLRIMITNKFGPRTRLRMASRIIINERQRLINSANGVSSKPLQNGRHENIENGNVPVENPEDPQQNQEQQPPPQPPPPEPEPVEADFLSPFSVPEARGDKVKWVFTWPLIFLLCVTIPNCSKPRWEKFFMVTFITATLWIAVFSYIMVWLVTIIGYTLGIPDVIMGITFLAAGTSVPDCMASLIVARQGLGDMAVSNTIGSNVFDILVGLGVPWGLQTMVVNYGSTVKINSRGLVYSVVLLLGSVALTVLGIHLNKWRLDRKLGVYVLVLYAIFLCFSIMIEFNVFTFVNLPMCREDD
Protocol: (§1) Sodium was incorporated into cells by changing the medium to an extracellular solution containing monensin [i.e., a solution containing 0.01 mmol/L monensin, 1 mmol/L ouabain, 146 mmol/L NaCl, 4 mmol/L KCl, 0.1 mmol/L CaCl2, 2 mmol/L MgCl2, 10 mmol/L glucose, 0.1% bovine serum albumin, and 10 mmol/L HEPES-Tris (pH=7.4)] and incubating the cells at 37° C. for 30 minutes. […]
(§2) The treated cells were washed with a washing solution containing 120 mmol/L choline chloride, 10 mmol/L LaCl3, and 10 mmol/L HEPES-Tris (pH=7.4) to remove calcium ions not incorporated, and then an intracellular calcium ion radioactivity was measured and analyzed by a liquid scintillation counter. In the HEK293 cells, Dede cells, or CHO-dhfr^− cells expressing the polypeptide consisting of the amino acid sequence of SEQ ID NO: 2 or 4, a higher radioactivity of approximately two times that obtained in the case of the extracellular solution A was measured when using the extracellular solution B (extracellular solution in which sodium was replaced with choline). Further, higher radioactivities of approximately five times and approximately ten times that obtained in the case of the extracellular solution A were measured when using the extracellular solutions C and D (extracellular solution containing potassium), respectively. […]

[2] = target: T2, novel potassium-dependent sodium-calcium exchanger consisting of the amino acid sequence of SEQ ID NO: 4 (Homo sapiens, UniProt Q8NFF2); test: 45Ca uptake screening for inhibition of potassium-dependent sodium-calcium exchange activity in stable-expression Dede cells (SEQ ID NO: 4); conditions: exchanger of SEQ ID NO: 4; conditions of Example 6
T2 construct: expressed in transfected cells
T2 sequence (Q8NFF2 39-603 isoform Q8NFF2-3): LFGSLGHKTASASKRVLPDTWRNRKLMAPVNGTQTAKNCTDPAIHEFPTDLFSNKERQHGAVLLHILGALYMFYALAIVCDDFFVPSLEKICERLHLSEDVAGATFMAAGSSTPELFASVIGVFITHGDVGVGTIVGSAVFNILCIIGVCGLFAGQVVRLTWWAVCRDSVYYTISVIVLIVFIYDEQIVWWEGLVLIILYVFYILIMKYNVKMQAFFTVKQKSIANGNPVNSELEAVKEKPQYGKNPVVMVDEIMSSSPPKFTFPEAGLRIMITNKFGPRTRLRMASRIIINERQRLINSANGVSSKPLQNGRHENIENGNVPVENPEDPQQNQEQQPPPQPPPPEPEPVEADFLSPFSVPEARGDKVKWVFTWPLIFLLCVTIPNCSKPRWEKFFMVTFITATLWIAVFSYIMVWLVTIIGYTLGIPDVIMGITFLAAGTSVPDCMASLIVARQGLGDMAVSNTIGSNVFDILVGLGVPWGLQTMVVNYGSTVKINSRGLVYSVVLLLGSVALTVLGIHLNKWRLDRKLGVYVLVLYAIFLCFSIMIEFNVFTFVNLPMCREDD
Protocol: as §1, §2

[3] = system: human peripheral polymorphonuclear leukocytes (PMNs); test: fMLP-stimulated migration test of PMNs in Transwell chemotaxis chamber; conditions: for Number of migrating cells (relative value): 100 nmol/L fMLP, 37° C., 1 hour, DMSO = 100, average ± SD of three experiments; for migration of PMNs (result in words): 10, 30 and 100 μmol/L, fMLP-stimulated
Protocol: The compounds obtained in Example 6 were evaluated using human peripheral polymorphonuclear leukocytes (PMNs). A blood sample was obtained by collecting blood from a healthy adult. A ficoll solution for separation (mono-poly resolving medium; Dainippon Pharmaceutical) was poured into each centrifuge tube, and a fresh blood component was laid on the ficoll solution. Centrifugation was carried out at 400×g at room temperature for 30 minutes to separate the upper layer (monocytes), the intermediate layer (PMNs), and the precipitate (erythrocytes). Each layer was collected in such a way that they were not mixed with each other, suspended in a phosphate buffered saline (PBS), and recentrifuged. Each collected layer was suspended in an RPMI1640 medium containing 0.2% bovine serum albumin (BSA), and used in the following experiment after counting the number of cells. A portion of the resulting PMN component was stained by a hematoxylin and eosin stain to confirm that neutrophils (approximately 95%) and eosinophils (approximately 5%) were contained.
A migration test was carried out using a 24-well disposable chemotaxis chamber Transwell 3 μm; Corning). Each test solution in which compound A or B (final concentration=10 μmol/L, 30 μmol/L, and 100 μmol/L) were contained in a medium (0.2% BSA, RPMI1640 medium) containing 100 nmol/L formylmethionyl-leucinyl-phenylalanine (fMLP) was prepared, and 1 mL of each test solution was added to each of the lower wells. The collected PMNs were added to each of the upper wells (2.0×10^6 cells/well; 0.2 mL) and incubated at 37° C. for 1 hour. The numbers of cells which migrated to the lower wells were counted by a hemacytometer. The test was independently repeated three times.
Each value shown in Table 1 is a relative value when the value obtained in the case of using DMSO instead of the test compounds is regarded as 100. Further, each value shown in Table 1 is an average and a standard deviation (SD) on the basis of three independent experiments.

Row | Structure (SMILES) | IC50 [1] [µM] | IC50 [2] [µM] | Number of migrating cells (relative value) ([3]; 10 μmol/L compound) | Number of migrating cells (relative value) ([3]; 30 μmol/L compound) | Number of migrating cells (relative value) ([3]; 100 μmol/L compound) | migration of PMNs (result in words) [3]
1 | N/C(=N\C(=O)c1nc(Cl)c(N)nc1N)NCc1ccc(Cl)c(Cl)c1 [compound B, 3′,4′-dichlorobenzamil] | 20.2 | 58.9 | 100.68 ± 7.27 | 72.90 ± 15.85 | 44.58 ± 32.82 | inhibited the migration of PMNs dose-dependently
2 | CS(=O)(=O)O.N=C(N)SCCc1ccc(OCc2ccc([N+](=O)[O-])cc2)cc1 [compound A, 2-[2-[4-(4-nitrobenzyloxy)phenyl]ethyl]isothiourea methanesulfonate] | 15.8 | 35 | 78.18 ± 25.93 | 29.50 ± 26.16 | 16.84 ± 10.78 | inhibited the migration of PMNs dose-dependently
